Broadly, the IC50 is the concentration that gives 50% inhibition.

The experiment addresses T1, Kinesin-like protein KIF18A (Homo sapiens, UniProt Q8NI77).
T1 sequence (Q8NI77 whole entry): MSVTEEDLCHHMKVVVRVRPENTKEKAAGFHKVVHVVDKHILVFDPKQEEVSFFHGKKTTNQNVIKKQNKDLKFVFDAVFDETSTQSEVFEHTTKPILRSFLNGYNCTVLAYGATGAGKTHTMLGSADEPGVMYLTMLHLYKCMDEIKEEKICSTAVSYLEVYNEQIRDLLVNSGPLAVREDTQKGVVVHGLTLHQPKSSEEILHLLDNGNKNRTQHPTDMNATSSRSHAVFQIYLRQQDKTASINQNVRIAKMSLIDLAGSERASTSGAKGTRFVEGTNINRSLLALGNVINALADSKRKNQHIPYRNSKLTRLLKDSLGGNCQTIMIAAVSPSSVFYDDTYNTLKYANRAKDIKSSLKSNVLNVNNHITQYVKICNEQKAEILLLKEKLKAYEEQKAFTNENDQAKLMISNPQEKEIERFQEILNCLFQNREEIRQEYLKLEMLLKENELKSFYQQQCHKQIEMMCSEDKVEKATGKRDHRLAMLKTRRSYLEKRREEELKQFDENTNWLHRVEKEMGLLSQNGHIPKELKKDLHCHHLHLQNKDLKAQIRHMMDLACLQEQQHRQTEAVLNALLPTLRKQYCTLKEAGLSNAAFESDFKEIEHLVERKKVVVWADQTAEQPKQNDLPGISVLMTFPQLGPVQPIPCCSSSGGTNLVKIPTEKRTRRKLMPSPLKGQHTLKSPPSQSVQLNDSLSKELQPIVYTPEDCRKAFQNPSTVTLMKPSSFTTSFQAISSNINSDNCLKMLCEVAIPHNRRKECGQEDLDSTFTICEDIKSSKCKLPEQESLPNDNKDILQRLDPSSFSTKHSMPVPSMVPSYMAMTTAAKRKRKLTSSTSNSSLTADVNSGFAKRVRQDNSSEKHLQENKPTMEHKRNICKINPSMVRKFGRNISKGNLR
Briefly: Inhibition of recombinant His-tagged human KIF18A (1 to 467 residues) expressed in baculovirus expression system assessed as inhibition of microtubule-stimulated ATPase activity preincubated for 15 mins followed by ATP addition and further incubated for 15 mins and measured after 40 mins by ADP-Glo reagent based assay.
For `CC(C)(C)NS(=O)(=O)c1cccc(NC(=O)c2ccc(CS(=O)(=O)C(C)(C)C)cc2N2CCC3(CC2)CC3)c1`, the IC50 is 76 nM.
Turning to `CC(C)(C)NS(=O)(=O)c1cccc(NC(=O)c2ccc(NS(=O)(=O)CCO)cc2N2CCC3(CC2)CC3)c1`, the concentration for half-maximal inhibition (IC50) came to 51 nM.
As to `CC(C)(CO)Nc1cccc(NC(=O)c2ccc(S(=O)(=O)NC3(C)COC3)cc2N2CCC3(CC2)CC3)c1`, the half-maximal inhibitory concentration (IC50) was determined as 198 nM.
In the case of `C[C@@H]1CN(c2cc(F)cc(NC(=O)c3ccc(NS(=O)(=O)CCO)cc3N3CCC4(CC3)CC4)c2)CCO1`, the 50% inhibitory concentration (IC50) stood at 131 nM.
Take `CCS(=O)(=O)Cc1ccc(C(=O)Nc2cccc(S(=O)(=O)NC(C)(C)C)c2)c(N2CCC3(CC2)CC3)c1`: the IC50 worked out at 75 nM.
